This note sets out measurements from patent US8288377B2, “Inhibitors of the interaction between MDM2 and p53” (Janssen Pharmaceutica N.V., priority 2007, dated 2012).

The subject of test [1] is A2780 ovarian cancer cells. In words: Proliferation assay (Alamar Blue). The note with it: Homo sapiens, 96 h, 4-day incubation, read-out: pIC50 (negative log value of the IC50-value) (converted). The format is cell-based. The method, then:
Cellular activity of the compounds of formula (I) was determined on A2780 tumour cells using a colorimetric assay for cell toxicity or survival (see example C.2).
The human A2780 ovarian cancer cells were a kind gift from Dr. T. C. Hamilton (Fox Chase Cancer Centre, Pennsylvania, U.S.A.). The cells were cultured in RPMI 1640 medium supplemented with 2 mM L-Glutamine, 50 μg/ml gentamicin and 10% fetal calf serum.
Resazurin was purchased from Aldrich (Prod. No. 199303). Potassium ferrocyanide, potassium ferricyanide, KH2PO4 and K2HPO4 were purchased from Sigma (Prod. Nos. P9387, P8131, P5655 and P8281, respectively).
Potassium Phosphate Buffer 0.1 M (PPB) was made as follows: 2.72 gram KH2PO4 and 13.86 gram K2HPO4 were dissolved in 500 ml milli-Q H2O, the pH was adjusted to pH 7.4 and the volume was brought to 1 liter with milli-Q H2O; the buffer was filter sterilised and stored at room temperature. Resazurin stock solution (PPB-A) was prepared fresh by dissolving 45 mg resazurin in 15 ml PBS. 30 mM potassium ferricyanide (PPB-B) was prepared by dissolving 0.987 gram potassium ferricyanide in 100 ml PPB. 30 mM potassium ferrocyanide (PPB-C) was prepared by dissolving 1.266 gram potassium ferrocyanide in 100 ml PPB.
Mixture of PPB-A, PPB-B and PPB-C was prepared by mixing equal volumes of the respective solutions. Resazurin work solution (herein termed “Alamar Blue” solution) was prepared by diluting said mixture 20× (vol/vol) in PPB and filter sterilising; the Alamar Blue solution could be kept at 4° C. for a maximum of 2 weeks.
For experiments in 384 wells plates the cells were seeded at a density of 5×10^3 cells/ml in Falcon 384-well culture plates (Life Technologies, Merelbeke, Belgium), black with clear bottom, in 45 μl culture medium. Cells were allowed to adhere to plastic for 24 hr. The tested compound was pre-diluted (1/50 in culture medium) and 5 μl pre-diluted compound was added to the wells. Following 4-day incubation, 10 μl of the Alamar Blue solution was added to each well and the cells were further incubated for 5 hrs (A2780) at 37° C. The fluorescence intensity was measured for each well with a Fluorescence plate reader (Fluorskan, Labsystems, 540 nm excitation and 590 nm emission)
The antiproliferative activity was calculated as percentage of remaining viable cells in treated versus control (untreated cells) conditions. Within an experiment, the result for each experimental condition is the mean of 3 replicate wells. When appropriate, the experiments were repeated to establish full concentration-response curves. When appropriate, IC50-values (concentration of the drug, needed to reduce cell growth to 50% of the control) were computed using probit analysis for graded data (Finney, D. J., Probit Analyses, 2nd Ed. Chapter 10, Graded Responses, Cambridge University Press, Cambridge 1962). Herein the effects of test compounds are expressed as pIC50 (the negative log value of the IC50-value) (see Table 4).
(In general: Resazurin is reduced to fluorescent resorufin, in cell work by metabolically active cells.)

Another test concerns p53 in A2780 cells. The test can be described thus: p53 ELISA (preservation of p53 in A2780 cells). It counts as cell-based. The settings on record: Homo sapiens, treated with compound for 16 hours, read-out: p53-elisa LAD (lowest dose giving at least 140% of the value for p53 present in the control). The method, then:
The capacity of the compounds to preserve p53 in A2780 cells was measured with the p53 enzyme linked immunosorbent assay (ELISA). The p53 assay is a “sandwich” enzyme immunoassay employing two polyclonal antibodies. A polyclonal antibody, specific for the p53 protein, has been immobilized onto the surface of the plastic wells. Any p53 present in the sample to be assayed will bind to the capture antibody. The biotinylated detector polyclonal antibody also recognizes p53 protein, and will bind to any p53, which has been retained by the capture antibody. The detector antibody, in turn, is bound by horseradish peroxidase-conjugated streptavidin. The horseradish peroxidase catalyses the conversion of the chromogenic substrate o-phenylene diamine, the intensity of which is proportional to the amount of p53 protein bound to the plate. The coloured reaction product is quantified using a spectrophotometer. Quantitation is achieved by the construction of a standard curve using known concentrations of purified recombinant HIS tagged p53 protein (see example C.1).
A2780 cells (ATCC) were cultivated in RPMI 1640 supplemented with 10% fetal calf serum (FCS), 2 mM L-glutamine and gentamycin at 37° C. in a humidified incubator with 5% CO2.
A2780 cells were seeded at 20.000 cells per well in a 96 well plate, cultured for 24 hours and treated with compound for 16 hours at 37° C. in a humidified incubator. After incubation, the cells were washed once with phosphate-buffered saline and 30 μl, per well, low salt RIPA buffer (20 mM tris, pH7.0, 0.5 mM EDTA, 1% Nonidet P40, 0.5% DOC, 0.05% SDS, 1 mM PMSF, 1 μg/ml aprotinin and 0.5 μ/ml leupeptin) was added. Plates were placed on ice for 30 minutes to complete the lysis. p53 protein was detected in de lysates by using the sandwich ELISA, described below.
High binding polystyrene EIA/RIA 96 well plates (Costar 9018) were coated with the capture antibody pAb1801 (Abcam ab28-100) at a concentration of 1 μg/ml in coating buffer (0.1 M NaHCO3 pH8.2), 50 μl per well. The antibody was allowed to adhere overnight at 4° C. Coated plates were washed once with phosphate-buffered saline (PBS)/0.05% Tween 20 and 300 μl of blocking buffer (PBS, 1% bovine serum albumins (BSA)) was added, for an incubation period of 2 hours at room temperature. Dilutions of purified recombinant HIS tagged p53 protein, ranging from 3-200 ng/ml, were made in blocking buffer and used as standards.
Plates were washed twice with PBS/0.05% Tween 20 and blocking buffer or standards were added at 80 μl/well. To the standards, 20 μl of lysis buffer was added. The samples were added to the other wells at 20 μl lysate/well. After an overnight incubation at 4° C., plates were washed twice with PBS/0.05% Tween 20. Aliquots of 100 μl secondary polyclonal antibody p53(FL-393) (Tebubio, sc-6243) at a concentration of 1 μg/ml in blocking buffer were added to each well and allowed to adhere for 2 hours at room temperature. Plates were washed three times with PBS/0.05% Tween 20. Detection antibody anti-rabbit HRP (sc-2004, Tebubio) at 0.04 μg/ml in PBS/1% BSA was added and incubated for 1 hour at room temperature. Plates were washed three times with PBS/0.05% Tween 20 and 100 μl of substrate buffer was added (substrate buffer was prepared shortly before use by adding 1 tablet of 10 mg o-phenylene diamine (OPD) from Sigma and 125 μl 3% H2O2 to 25 ml OPD buffer: 35 mM citric acid, 66 mM Na2HPO4, pH5.6). After 5 to 10 minutes, colour reaction was stopped by adding 50 μl stop buffer (1 M H2SO4) per well. The absorbance at dual wavelengths of 490/655 nm was measured using a Biorad micro plate reader and the results were then analyzed.
For each experiment, controls (containing no drug) and a blank incubation (containing no cells or drugs) were run in parallel. The blank value was subtracted from all control and sample values. For each sample, the value of p53 (in absorbance units) was expressed as the percentage of the value for p53 present in the control. […]

Turning to `OC1CCc2c(Nc3ccc4c(c3)OCCN4CCc3c[nH]c4ccccc34)ccnc21` (stereo not shown) [Compound 1], the IC50 in test [1] was 0.427 µM. The minimal effective concentration with p53 in A2780 cells was determined as 0.1 µM.
In the same order, the values of `O=C1COc2cc(Nc3ccnc4c3CCC4O)ccc2N1CCc1c[nH]c2ccccc12` (stereo not shown) [Compound 2] are around 6.03 µM and 1 µM.
As to `c1ccc2c(CCN3CCOc4cc(Nc5ccncc5)ccc43)c[nH]c2c1` [Compound 3], the IC50 in test [1] was above 10 µM. For the same compound, the minimal effective concentration in the test with p53 in A2780 cells was above 10 µM.
`O=C1COc2cc(Nc3ccncc3)ccc2N1CCc1c[nH]c2ccccc12` [Compound 4]: the 50% inhibitory concentration (IC50) in test [1] was above 10 µM. The minimal effective concentration with p53 in A2780 cells is above 10 µM.
`OC1CCc2c(Nc3ccc4c(c3)OC(c3ccoc3)CN4CCc3c[nH]c4ccccc34)ccnc21` (stereo not shown) [Compound 5]: the half-maximal inhibitory concentration (IC50) in test [1] was 2.57 µM. Also, in the test on p53 in A2780 cells, the minimal effective concentration is 0.3 µM.
In the same order, the values of `c1ccc2c(CCN3CCOc4cc(Nc5ccncc5)ccc43)csc2c1` [Compound 6] are 5.5 µM and above 10 µM.
For the compound `c1ccc2c(CCN3CC4(CCOCC4)Oc4cc(Nc5ccncc5)ccc43)c[nH]c2c1` [Compound 7], the IC50 in test [1] was 8.51 µM. In addition, in the test on p53 in A2780 cells, the minimal effective concentration is above 10 µM.
With `CC(C)N1CCC2(CC1)CN(CCc1c[nH]c3ccccc13)c1ccc(Nc3ccncc3)cc1O2` [Compound 8], the IC50 in test [1] was 1.26 µM. Further, the minimal effective concentration in the test with p53 in A2780 cells is above 10 µM.
In the same order, the values of `CC1CN(CCc2c[nH]c3ccccc23)c2ccc(Nc3ccncc3)cc2O1` (stereo not shown) [Compound 9] are around 5.89 µM and above 10 µM.
In the case of `O=C1N(CCc2c[nH]c3ccccc23)c2ccc(Nc3ccnc4c3CCC4O)cc2OC1(F)F` (stereo not shown) [Compound 10], in the test with p53 in A2780 cells, the minimal effective concentration was found to be 0.3 µM.
Turning to `OC1CCc2c(Nc3ccc4c(c3)CCCN4CCc3c[nH]c4ccccc34)ccnc21` (stereo not shown) [Compound 11], the IC50 in test [1] is 2.34 µM. Also, the minimal effective concentration in the test with p53 in A2780 cells is 0.1 µM.
In the same order, the values of `OC1CCc2c(Nc3ccc4c(c3)OCCN4CCc3csc4ccccc34)ccnc21` (stereo not shown) [Compound 12] are 3.72 µM and 0.3 µM.
In the same order, the values of `OC1CCc2c(Nc3cc(F)c4c(c3)OCCN4CCc3c[nH]c4ccccc34)ccnc21` (stereo not shown) [Compound 13] are 4.47 µM and 1 µM.
Turning to `Cc1cccc2c(CCN3CCOc4cc(Nc5ccnc6c5CCC6O)ccc43)c[nH]c12` (stereo not shown) [Compound 14], the concentration for half-maximal inhibition (IC50) in test [1] was 2.88 µM. The minimal effective concentration with p53 in A2780 cells worked out at 3 µM.
In the same order, the values of `c1ccc2c(CCN3CC4(CCNCC4)Oc4cc(Nc5ccncc5)ccc43)c[nH]c2c1` [Compound 15] are 8.32 µM and above 10 µM.
In the same order, the values of `OCc1cc(Nc2ccc3c(c2)OC2(CCNCC2)CN3CCc2c[nH]c3ccccc23)ccn1` [Compound 16] are above 10 µM and above 10 µM.
Turning to `Cc1cccc2c(CCN3CC(CO)Oc4cc(Nc5ccncc5)ccc43)c[nH]c12` (stereo not shown) [Compound 17], the minimal effective concentration with p53 in A2780 cells is above 10 µM.
On the same count and under the same terms, with `Cc1cccc2c(CCN3CC(O)COc4cc(Nc5ccnc6c5CCC6O)ccc43)c[nH]c12` (stereo not shown) [Compound 18] the figure was above 10 µM; with `Cc1cccc2c(CCN3C[C@@H](CO)Oc4cc(Nc5ccnc6c5CC[C@@H]6O)ccc43)c[nH]c12` [Compound 19], above 10 µM.
Regarding `CN1CCN(CCc2c[nH]c3ccccc23)c2ccc(Nc3ccnc(CO)c3)cc21` [Compound 20], the 50% inhibitory concentration (IC50) in test [1] is 4.79 µM. In the test with p53 in A2780 cells, the minimal effective concentration is 3 µM.
In the same order, the values of `O=C1COc2cc(Nc3ccnc(CO)c3)ccc2N1CCc1c[nH]c2ccccc12` [Compound 21] are above 10 µM and above 10 µM.
In the same order, the values of `OCc1cc(Nc2ccc3c(c2)OCCN3CCc2c[nH]c3ccccc23)ccn1` [Compound 22] are 2.29 µM and 1 µM.
For the compound `CC1CN(CCc2c[nH]c3ccccc23)c2c(F)cc(Nc3ccnc4c3CCC4O)cc2O1` (stereo not shown) [Compound 32], the minimal effective concentration in the test with p53 in A2780 cells was found to be 3 µM.
On the same count and under the same terms, with `CC1CN(CCc2c[nH]c3ccccc23)c2c(F)cc(Nc3ccncc3)cc2O1` (stereo not shown) [Compound 57] the figure was above 10 µM; with `Cc1cccc2c(CCN3CC4(CCN(C)CC4)Oc4cc(Nc5ccncc5)ccc43)c[nH]c12` [Compound 58], above 10 µM.
Still for that read-out and setting: with `O=C1N(CCc2c[nH]c3ccccc23)c2ccc(Nc3ccncc3)cc2OC1(F)F` [Compound 60] the figure was above 10 µM; with `O=C1N(CCc2c[nH]c3ccccc23)c2ccc(Nc3ccnc(CO)c3)cc2OC1(F)F` [Compound 64], 10 µM; with `Cc1cccc2c(CCN3CC4(CCNCC4)Oc4cc(Nc5ccncc5)ccc43)c[nH]c12` [Compound 73], above 10 µM.
As to `Cc1cccc2c(CCN3CC4(CCNCC4)Oc4cc(Nc5ccnc6c5CCC6O)ccc43)c[nH]c12` (stereo not shown) [Compound 74], the minimal effective concentration in the test with p53 in A2780 cells is above 10 µM.
Still for that read-out and setting: with `CC1CN(CCc2c[nH]c3ccccc23)c2ccc(Nc3ccnc(CO)c3)cc2O1` (stereo not shown) [Compound 79] the figure was 10 µM.
Take `CC1Oc2cc(Nc3ccnc4c3CCC4O)ccc2N(CCc2c[nH]c3ccccc23)C1=O` (stereo not shown) [Compound 80]: the IC50 in test [1] is 3.09 µM.

What is called IC50 is the point on the concentration scale where inhibition reaches its midpoint.
